In one experiment the target is Serine protease 1 (Homo sapiens, UniProt P07477). The experiment is described as follows: Inhibition Assay: Using a 96 well plate (#3915, Costar), a test compound (25 μL) was mixed with 20 μM fluorescence enzyme substrate (Boc-Phe-Ser-Arg-AMC, 50 μL) mixed with 200 mM Tris-HCl buffer (pH 8.0), and human trypsin (Sigma, 25 μL) was added. Using a fluorescence plate reader fmax (Molecular Devices, Inc.), the reaction rate was measured from the time-course changes at excitation wavelength 355 nm and fluorescence wavelength 460 nm.

The next experiment concerns the target Enteropeptidase (Homo sapiens, UniProt P98073). Description: Inhibition Assay: Using a 96 well plate (#3915, Costar), a test compound (25 μL), 400 mM Tris-HCl buffer (pH 8.0, 25 μL) and 0.5 mg/mL fluorescence enzyme substrate (Gly-Asp-Asp-Asp-Asp-Lys-β-Naphtylamide, 25 μL) were mixed, and recombinant human enteropeptidase (R&D Systems, Inc., 25 μL) was added. Using a fluorescence plate reader fmax (Molecular Devices, Inc.), the reaction rate was measured from the time-course changes at excitation wavelength 320 nm and fluorescence wavelength 405 nm.

These results are taken from ChEMBL document CHEMBL3639122, “Heteroarylcarboxylic acid ester derivative” (2015).

By Ki is commonly meant a measure of affinity in units of concentration, obtained from inhibition or displacement.

Chain of Serine protease 1 (P07477 whole entry): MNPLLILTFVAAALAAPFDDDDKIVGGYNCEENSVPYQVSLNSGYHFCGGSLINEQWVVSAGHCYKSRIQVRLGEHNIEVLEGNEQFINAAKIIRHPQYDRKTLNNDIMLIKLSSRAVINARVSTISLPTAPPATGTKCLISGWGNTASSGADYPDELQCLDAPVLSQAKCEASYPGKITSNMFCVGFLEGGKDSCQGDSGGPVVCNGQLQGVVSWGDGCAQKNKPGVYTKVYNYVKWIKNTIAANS
Chain of Enteropeptidase (P98073 2-784 limits assumed): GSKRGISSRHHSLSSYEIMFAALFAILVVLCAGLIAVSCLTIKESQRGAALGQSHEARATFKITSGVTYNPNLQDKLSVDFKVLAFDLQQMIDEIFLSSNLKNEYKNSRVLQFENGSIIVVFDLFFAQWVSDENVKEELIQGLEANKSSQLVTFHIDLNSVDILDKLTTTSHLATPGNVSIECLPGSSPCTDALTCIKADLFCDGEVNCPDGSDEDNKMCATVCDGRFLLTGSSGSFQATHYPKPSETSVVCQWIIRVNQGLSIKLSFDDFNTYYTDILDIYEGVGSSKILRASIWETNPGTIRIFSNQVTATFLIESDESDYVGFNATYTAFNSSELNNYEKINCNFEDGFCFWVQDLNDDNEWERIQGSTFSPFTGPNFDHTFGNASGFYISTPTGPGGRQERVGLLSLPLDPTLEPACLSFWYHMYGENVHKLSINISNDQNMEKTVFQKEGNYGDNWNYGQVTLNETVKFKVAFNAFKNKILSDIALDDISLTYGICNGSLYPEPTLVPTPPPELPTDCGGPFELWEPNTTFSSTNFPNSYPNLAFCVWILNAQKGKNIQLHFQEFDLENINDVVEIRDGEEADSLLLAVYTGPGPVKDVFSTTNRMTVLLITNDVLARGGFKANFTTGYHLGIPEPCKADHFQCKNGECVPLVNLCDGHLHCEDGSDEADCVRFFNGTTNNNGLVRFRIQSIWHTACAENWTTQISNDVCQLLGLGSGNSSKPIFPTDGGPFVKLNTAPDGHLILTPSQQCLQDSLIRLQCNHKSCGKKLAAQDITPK
Chain of Enteropeptidase (P98073 785-1019 limits assumed): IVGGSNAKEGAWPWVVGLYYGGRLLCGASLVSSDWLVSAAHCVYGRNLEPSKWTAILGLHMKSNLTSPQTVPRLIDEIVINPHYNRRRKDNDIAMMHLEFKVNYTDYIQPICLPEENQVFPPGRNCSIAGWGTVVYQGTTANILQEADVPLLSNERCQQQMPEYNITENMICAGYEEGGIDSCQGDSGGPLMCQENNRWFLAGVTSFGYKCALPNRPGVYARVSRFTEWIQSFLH

Turning to `CCC(CC)(Cc1ccc(C(=O)Oc2ccc(C(=N)N)cc2F)s1)C(=O)N[C@@H](CCC(=O)O)C(=O)O`, the Ki was determined as 2.01 nM on Serine protease 1 and 0.27 nM at Enteropeptidase.
